Two molecules from ChEMBL document CHEMBL1154818, “Molecular modeling study of binding site selectivity of TQMP to G-quadruplex DNA” (Eur J Med Chem, 2010) can be followed below.

Assay [1] concerns Nucleic Acid. Briefly: Binding affinity to d(TTAGGG) sequence of G-quadruplex DNA. Type of assay: nucleic-acid assay.
In assay [2] the test system is Nucleic Acid. Briefly: Binding affinity to DNA duplex. The assay is classed as nucleic-acid assay.

Take `C[N+](C)(C)Cc1cc(-c2c3nc(c(-c4ccc(O)c(C[N+](C)(C)C)c4)c4ccc([nH]4)c(-c4ccc(O)c(C[N+](C)(C)C)c4)c4nc(c(-c5ccc(O)c(C[N+](C)(C)C)c5)c5ccc2[nH]5)C=C4)C=C3)ccc1O`: the K in the assay with Nucleic Acid [1] came out at 1.12 ×10⁶ /mol; in the assay with Nucleic Acid [2], 3.18 ×10⁴ /mol.
The corresponding values for `C[n+]1ccc(-c2c3nc(c(-c4cc[n+](C)cc4)c4ccc([nH]4)c(-c4cc[n+](C)cc4)c4ccc([nH]4)c(-c4cc[n+](C)cc4)c4nc2C=C4)C=C3)cc1` are 1.38 ×10⁷ /mol and 2.73 ×10⁶ /mol.
